The target of the first assay is SHP2 (Homo sapiens (Human), UniProt Q06124). Description: SHP2 allosteric inhibition assay (DiFMUP prompt fluorescence). The note with it: 0.2 nM SHP2 activated with 0.5 μM Activating Peptide 1 or 2; substrate DiFMUP; Table 1. Type of assay: biochemical. An excerpt: Without wishing to be bound by theory, SHP2 is allosterically activated through binding of bis-tyrosyl-phosphorylated peptides to its Src Homology 2 (SH2) domains. The latter activation step leads to the release of the auto-inhibitory interface of SHP2, which in turn renders the SHP2 protein tyrosine phosphatase (PTP) active and available for substrate recognition and reaction catalysis. The catalytic activity of SHP2 was monitored using the surrogate substrate DiFMUP in a prompt fluorescence assay format.
Chain of SHP2 (Q06124 whole entry): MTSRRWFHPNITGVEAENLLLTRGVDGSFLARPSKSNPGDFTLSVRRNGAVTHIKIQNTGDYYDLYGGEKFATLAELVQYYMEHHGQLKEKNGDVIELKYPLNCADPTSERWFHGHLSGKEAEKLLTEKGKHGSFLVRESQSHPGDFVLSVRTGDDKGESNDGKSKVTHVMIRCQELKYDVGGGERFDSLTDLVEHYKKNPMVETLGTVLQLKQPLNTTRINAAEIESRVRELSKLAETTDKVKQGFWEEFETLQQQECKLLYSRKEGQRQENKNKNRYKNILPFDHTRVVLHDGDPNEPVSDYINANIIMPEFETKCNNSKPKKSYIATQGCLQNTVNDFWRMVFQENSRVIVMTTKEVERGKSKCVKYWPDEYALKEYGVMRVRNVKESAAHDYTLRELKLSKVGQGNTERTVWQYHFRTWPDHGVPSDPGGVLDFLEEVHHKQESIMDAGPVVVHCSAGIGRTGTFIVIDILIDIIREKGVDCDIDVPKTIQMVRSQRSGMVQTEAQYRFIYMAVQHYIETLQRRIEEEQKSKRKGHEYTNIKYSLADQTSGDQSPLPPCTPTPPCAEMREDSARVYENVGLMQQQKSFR
The phosphatase reactions were performed at room temperature in 96-well black polystyrene plate, flat bottom, non-binding surface (Corning, Cat #3650) using a final reaction volume of 100 μL and the following assay buffer conditions: 50 mM HEPES, pH 7.2, 100 mM NaCl, 0.5 mM EDTA, 0.05% P-20, 1 mM DTT.
The inhibition of SHP2 by compounds of the invention (concentrations varying from 0.00005-10 μM) was monitored using an assay in which 0.2 nM of SHP2 was incubated with 0.5 μM of Activating Peptide 1 (sequence: H2N-LN(pY)IDLDLV(dPEG8)LST(pY)ASINFQK-amide) or Activating Peptide 2 (sequence: H2N-LN(pY)AQLWHA(dPEG8)LTI(pY)ATIRRF-amide). After 30-60-minutes incubation at 25° C., the surrogate substrate DiFMUP (Invitrogen, Cat #D6567) was added to the reaction and activity was determined by a kinetic read using a microplate reader (Envision, Perkin-Elmer or Spectramax M5, Molecular Devices). The excitation and emission wavelengths were 340 nm and 450 nm, respectively. Initial rates were determined from a linear fit of the data, and the inhibitor dose response curves were analyzed using normalized IC50 regression curve fitting with control based normalization.
In general, IC50 refers to the concentration at which inhibition is half-maximal. The low end stands for inhibition by little substance, the high end for a need for much substance. On to `C[C@@H]1OCC2(CCN(c3ncc(Sc4ccnc(N)c4Cl)c4ncnn34)CC2)[C@@H]1N` [Compound 4 (Example 4)], for which the IC50 came to 29 nM.
Turning to `Cc1nc(N2CCC3(CC2)CO[C@@H](C)[C@H]3N)n2cnnc2c1-c1cccc(Cl)c1Cl` [Compound 6 (Example 6)], half-maximal inhibition (IC50) was put at 10 nM.

The assay is the same for the next values; noted with them: 0.2 nM SHP2 activated with 0.5 μM Activating Peptide 1 or 2; substrate DiFMUP; Table 2, class symbols.
For `NC[C@H]1CCN(c2ncc(Sc3ccnc(N)c3Cl)c3nccn23)C1` [Compound 24, 4-({5-[(3R)-3-(aminomethyl)pyrrolidin-1-yl]imidazo[1,2-c]pyrimidin-8-yl}sulfanyl)-3-chloropyridin-2-amine], the IC50 is 50 to 500 nM.
On the same count and under the same terms, the result for `CNC(=O)O[C@H]1C[C@@H](N)C2(CCN(c3nc(C)c(-c4cccc(Cl)c4Cl)c4nccn34)CC2)C1` [Compound 63, (2R,4R)-4-amino-8-[8-(2,3-dichlorophenyl)-7-methylimidazo[1,2-c]pyrimidin-5-yl]-8-azaspiro[4.5]decan-2-yl N-methylcarbamate] reads no more than 50 nM; that for `Cc1nc(N2CCC3(CC2)CO[C@@H](C)[C@H]3N)n2ccnc2c1-c1ccc2[nH]cnc2c1` [Compound 33, (3S,4S)-8-[8-(1H-1,3-benzodiazol-6-yl)-7-methylimidazo[1,2-c]pyrimidin-5-yl]-3-methyl-2-oxa-8-azaspiro[4.5]decan-4-amine], no more than 50 nM.
Compound `Nc1nccc(Sc2cnc(N3CCNCC3)n3ccnc23)c1Cl` [Compound 27, 3-chloro-4-{[5-(piperazin-1-yl)imidazo[1,2-c]pyrimidin-8-yl]sulfanyl}pyridin-2-amine] gave an IC50 greater than 500 nM.
Take `CC1(N)CCN(c2ncc(Sc3ccnc(N)c3Cl)c3nccn23)CC1` [Compound 2, 4-{[5-(4-amino-4-methylpiperidin-1-yl)imidazo[1,2-c]pyrimidin-8-yl]sulfanyl}-3-chloropyridin-2-amine]: the IC50 was 50 to 500 nM.
In turn, `Nc1nccc(Sc2cnc(N3CCC[C@@H]3CO)n3ccnc23)c1Cl` [Compound 72] had an IC50 greater than 500 nM.
Turning to `Cc1nc(N2CCC3(CC2)CO[C@@H](C)[C@H]3N)n2ccnc2c1-c1cccc2c(Cl)c[nH]c12` [Compound 50, (3S,4S)-8-[8-(3-chloro-1H-indol-7-yl)-7-methylimidazo[1,2-c]pyrimidin-5-yl]-3-methyl-2-oxa-8-azaspiro[4.5]decan-4-amine], the IC50 was no more than 50 nM.
In turn, `Cc1nc(N2CCC3(CC2)CO[C@@H](C)[C@H]3N)n2ccnc2c1-c1cccc(C#N)c1Cl` [Compound 45, 3-{5-[(3S,4S)-4-amino-3-methyl-2-oxa-8-azaspiro[4.5]decan-8-yl]-7-methylimidazo[1,2-c]pyrimidin-8-yl}-2-chlorobenzonitrile] registered an IC50 of no more than 50 nM.
`Cc1nc(N2CCC3(CC2)CO[C@@H](C)[C@H]3N)n2cnnc2c1Sc1ccnc(N)c1Cl` [Compound 61, (3S,4S)-8-{8-[(2-amino-3-chloropyridin-4-yl)sulfanyl]-7-methyl-[1,2,4]triazolo[4,3-c]pyrimidin-5-yl}-3-methyl-2-oxa-8-azaspiro[4.5]decan-4-amine] gave an IC50 of no more than 50 nM.
On the same count and under the same terms, for `Cc1nc(N2CCC3(CC2)CO[C@@H](C)[C@H]3N)n2ccnc2c1-c1cccc2nc[nH]c12` [Compound 32, (3S,4S)-8-[8-(1H-1,3-benzodiazol-4-yl)-7-methylimidazo[1,2-c]pyrimidin-5-yl]-3-methyl-2-oxa-8-azaspiro[4.5]decan-4-amine] the value was no more than 50 nM; for `C[C@@H]1OCC2(CCN(c3ncc(-c4ccnc(N)c4Cl)c4nccn34)CC2)[C@@H]1N` [Compound 60, (3S,4S)-8-[8-(2-amino-3-chloropyridin-4-yl)imidazo[1,2-c]pyrimidin-5-yl]-3-methyl-2-oxa-8-azaspiro[4.5]decan-4-amine], greater than 500 nM; for `Cc1nc(N2CCC3(CC2)CC(N2CC(C#N)C2)C[C@H]3N)n2ccnc2c1-c1cccc(Cl)c1Cl` (stereo partly drawn) [Compound 62, 1-[(4R)-4-amino-8-[8-(2,3-dichlorophenyl)-7-methylimidazo[1,2-c]pyrimidin-5-yl]-8-azaspiro[4.5]decan-2-yl]azetidine-3-carbonitrile], no more than 50 nM.
The same measure, in the same setting: for `COc1cccc(-c2cnc(N3CCC4(CC3)CO[C@@H](C)[C@H]4N)n3ccnc23)c1Cl` [Compound 57, (3S,4S)-8-[8-(2-chloro-3-methoxyphenyl)imidazo[1,2-c]pyrimidin-5-yl]-3-methyl-2-oxa-8-azaspiro[4.5]decan-4-amine] the value was 50 to 500 nM; for `Cc1nc(N2CCC3(CC2)CO[C@@H](C)[C@H]3N)n2ccnc2c1-c1cccc2c(F)c[nH]c12` [Compound 55, (3S,4S)-8-[8-(3-fluoro-1H-indol-7-yl)-7-methylimidazo[1,2-c]pyrimidin-5-yl]-3-methyl-2-oxa-8-azaspiro[4.5]decan-4-amine], no more than 50 nM; for `Cc1nc(N2CCC3(CC2)CO[C@@H](C)[C@H]3N)n2ccnc2c1Sc1ccnc(N)c1Cl` [Compound 29, (3S,4S)-8-{8-[(2-amino-3-chloropyridin-4-yl)sulfanyl]-7-methylimidazo[1,2-c]pyrimidin-5-yl}-3-methyl-2-oxa-8-azaspiro[4.5]decan-4-amine], no more than 50 nM.
Regarding `Cc1nc(N2CCC3(CC2)CO[C@@H](C)[C@H]3N)n2cnnc2c1-c1cccc(Cl)c1Cl` [Compound 6, (3S,4S)-8-[8-(2,3-dichlorophenyl)-7-methyl-[1,2,4]triazolo[4,3-c]pyrimidin-5-yl]-3-methyl-2-oxa-8-azaspiro[4.5]decan-4-amine], the IC50 is no more than 50 nM.
Still for that read-out and setting: for `C[C@@H]1OCC2(CCN(c3ncc(Sc4ccnc(N5CC(S(C)(=O)=O)C5)c4Cl)c4nccn34)CC2)[C@@H]1N` [Compound 12, (3S,4S)-8-(8-{[3-chloro-2-(3-methanesulfonylazetidin-1-yl)pyridin-4-yl]sulfanyl}imidazo[1,2-c]pyrimidin-5-yl)-3-methyl-2-oxa-8-azaspiro[4.5]decan-4-amine] the value was no more than 50 nM; for `C[C@@H]1OCC2(CCN(c3ncc(Sc4ccnc(N)c4Cl)c4ncnn34)CC2)[C@@H]1N` [Compound 4, (3S,4S)-8-{8-[(2-amino-3-chloropyridin-4-yl)sulfanyl]-[1,2,4]triazolo[1,5-c]pyrimidin-5-yl}-3-methyl-2-oxa-8-azaspiro[4.5]decan-4-amine], no more than 50 nM; for `C[C@@H]1OCC2(CCN(c3ncc(-c4ccnc(N)c4)c4nccn34)CC2)[C@@H]1N` [Compound 58, (3S,4S)-8-[8-(2-aminopyridin-4-yl)imidazo[1,2-c]pyrimidin-5-yl]-3-methyl-2-oxa-8-azaspiro[4.5]decan-4-amine], greater than 500 nM.
On the same count and under the same terms, the result for `COc1cc(Cl)c(Cl)c(-c2c(C)nc(N3CCC4(CC3)CO[C@@H](C)[C@H]4N)n3ccnc23)c1` [Compound 49, (3S,4S)-8-[8-(2,3-dichloro-5-methoxyphenyl)-7-methylimidazo[1,2-c]pyrimidin-5-yl]-3-methyl-2-oxa-8-azaspiro[4.5]decan-4-amine] reads no more than 50 nM; that for `Nc1nccc(Sc2cnc(NCCO)n3ccnc23)c1Cl` [Compound 73], greater than 500 nM; that for `C[C@@H]1OCC2(CCN(c3ncc(Sc4cccc(Cl)c4Cl)c4nccn34)CC2)[C@@H]1N` [Compound 11, (3S,4S)-8-{8-[(2,3-dichlorophenyl)sulfanyl]imidazo[1,2-c]pyrimidin-5-yl}-3-methyl-2-oxa-8-azaspiro[4.5]decan-4-amine], no more than 50 nM.
The compound `C[C@@H]1OCC2(CCN(c3ncc(Sc4ccnc5[nH]ccc45)c4nccn34)CC2)[C@@H]1N` [Compound 15, (3S,4S)-3-methyl-8-(8-{1H-pyrrolo[2,3-b]pyridin-4-ylsulfanyl}imidazo[1,2-c]pyrimidin-5-yl)-2-oxa-8-azaspiro[4.5]decan-4-amine] had an IC50 of no more than 50 nM.
`Nc1nccc(Sc2cnc(N3CCC[C@H]3CO)n3ccnc23)c1Cl` [Compound 67] displayed an IC50 greater than 500 nM.
Take `C[C@@H]1OCC2(CCN(c3ncc(-c4ccnc5[nH]ccc45)c4nccn34)CC2)[C@@H]1N` [Compound 59, (3S,4S)-3-methyl-8-(8-{1H-pyrrolo[2,3-b]pyridin-4-yl}imidazo[1,2-c]pyrimidin-5-yl)-2-oxa-8-azaspiro[4.5]decan-4-amine]: the IC50 was greater than 500 nM.
Same read-out and setting: the result for `COc1ccc(-c2c(C)nc(N3CCC4(CC3)CO[C@@H](C)[C@H]4N)n3ccnc23)c(Cl)c1C#N` [Compound 31, 3-{5-[(3S,4S)-4-amino-3-methyl-2-oxa-8-azaspiro[4.5]decan-8-yl]-7-methylimidazo[1,2-c]pyrimidin-8-yl}-2-chloro-6-methoxybenzonitrile] reads no more than 50 nM.
`C[C@@H]1OCC2(CCN(c3nc4[nH]nc(-c5cccc(Cl)c5Cl)c4c4nccn34)CC2)[C@@H]1N` [Compound 83, (3S,4S)-8-[12-(2,3-dichlorophenyl)-3,6,8,10,11-pentaazatricyclo[7.3.0.0^2,6]dodeca-1(12),2,4,7,9-pentaen-7-yl]-3-methyl-2-oxa-8-azaspiro[4.5]decan-4-amine] showed an IC50 of no more than 50 nM.

(Values after patent US11673901B2, “Polycyclic compounds as allosteric SHP2 inhibitors” (Revolution Medicines, Inc., priority 2017, dated 2023).)
